From paper PMC11395397, “Isolation and Characterization of Novel Pueroside B Isomers and Other Bioactive Compounds from Pueraria lobata Roots: Structure Elucidation, α-Glucosidase, and α-Amylase Inhibition Studies” (International Journal of Molecular Sciences, 2024) come the findings set out here.

Like-named read-outs stand apart in the source and are kept apart here.

Assay [1] concerns the target T1, α-Glucosidase (from yeast, EC 3.2.1.20) (Saccharomyces cerevisiae, UniProt P53341).
T1 construct: purchased Shanghai Yuanye Bio-Technology Co., Ltd. (Shanghai, China)
The assay can be described thus: biochemical. It is filed as biochemical. Conditions: for IC50: means ± SD, n = 3, yeast enzyme, p-NPG substrate, 37 °C; for α-glucosidase inhibitory activity (in words): tested up to 100.00 μM. The method, then: (§1) ESI-HR-MS was recorded on an Orbitrap Exploris 120 quadrupole electrostatic field orbital well high-resolution mass spectrometer for UPLC-Q-Orbitrap HRMS (Waltham, MA, USA) equipped with a Hypersil GOLD C18 column (2.1 × 100 mm, 1.9 μm, ThermoFisher, Waltham, MA, USA). Optical rotations were measured on an MCP 500 polarimeter (Anton Paar, Graz, Austria). CD spectra were obtained using a Chirascan circular dichroism spectrometer (Applied PhotoPhysics, Leatherhead, Surrey, UK). UV spectra were measured with a UV-3600 Plus spectrophotometer (Shimadzu, Kyoto, Japan), and IR spectra were obtained using an IR Affinity-1S spectrophotometer (Shimadzu, Kyoto, Japan). Preparative and semipreparative HPLC were performed on a Shimadzu LC-16 system using a reverse-phase C18 column (20 × 250 mm, 5 μm, Shimadzu, Kyoto, Japan). NMR experiments were conducted on a Bruker AVANCE-600 instrument with tetramethylsilane (TMS) as an internal standard, operating at 600 MHz for ^1H NMR and 150 MHz for ^13C NMR (Ettlingen, Germany). Enzyme inhibition activity was measured using an Agilent Synergy H1 microplate reader (Agilent Technologies, Santa Clara, CA, USA). Macroporous resin AB-8 was obtained from the Chemical Plant of Nankai University (Tianjin, China). […] Analytical-grade reagents were procured from Da Mao Chemical Reagent Co., Ltd. (Tianjin, China), chromatographic-grade reagents from Honeywell Trade (Shanghai) Co., Ltd. (Shanghai, China), and distilled water from Watsons (Hong Kong, China).
Then, 400 μL of p-NPG solution (5 mM) was added to initiate the enzymatic reaction, which continued to incubate at 37 °C for 20 min. The reaction was terminated by placing the mixture in a −20 °C freezer for 10 min. Absorbance was measured at 405 nm using a microplate reader.

Assay [2] addresses T2, α-amylase (from porcine pancreas) (Sus scrofa, UniProt P00690).
T2 construct: purchased Shanghai Yuanye Bio-Technology Co., Ltd. (Shanghai, China); host or cells: porcine pancreas
T2 sequence (P00690 16-511): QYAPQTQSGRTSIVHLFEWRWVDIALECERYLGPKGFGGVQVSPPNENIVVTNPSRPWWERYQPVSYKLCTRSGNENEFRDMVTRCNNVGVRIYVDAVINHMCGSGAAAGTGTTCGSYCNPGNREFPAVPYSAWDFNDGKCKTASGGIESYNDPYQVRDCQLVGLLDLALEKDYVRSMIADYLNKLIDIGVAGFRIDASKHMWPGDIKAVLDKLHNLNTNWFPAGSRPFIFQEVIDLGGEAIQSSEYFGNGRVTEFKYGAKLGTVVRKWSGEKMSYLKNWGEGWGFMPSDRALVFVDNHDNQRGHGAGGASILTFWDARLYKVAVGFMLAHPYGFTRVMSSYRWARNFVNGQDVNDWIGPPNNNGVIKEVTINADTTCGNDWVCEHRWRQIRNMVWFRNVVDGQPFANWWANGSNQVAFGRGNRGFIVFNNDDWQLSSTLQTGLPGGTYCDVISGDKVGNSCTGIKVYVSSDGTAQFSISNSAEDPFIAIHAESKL
Nature of the assay: α-amylase inhibition assay (DNS colorimetric, 540 nm). The conditions noted are these: for IC50: means ± SD, n = 3, porcine pancreas enzyme, DNS method, 37 °C; for α-amylase inhibitory activity (in words): tested up to 100.00 μM. Type of assay: biochemical. As to the method: as §1
Test sample solutions at various concentrations (5.00, 10.00, 20.00, 40.00, 60.00, 80.00, and 100.00 μM) were preincubated with α-amylase (2 U/mL) at 37 °C for 10 min. The reaction was terminated by adding 200 μL of DNS reagent and boiling the mixture at 100 °C for 5 min to inactivate the enzyme. After cooling to room temperature, 1 mL of distilled water was added for dilution, and absorbance was measured at 540 nm.

T1 sequence (P53341 whole entry): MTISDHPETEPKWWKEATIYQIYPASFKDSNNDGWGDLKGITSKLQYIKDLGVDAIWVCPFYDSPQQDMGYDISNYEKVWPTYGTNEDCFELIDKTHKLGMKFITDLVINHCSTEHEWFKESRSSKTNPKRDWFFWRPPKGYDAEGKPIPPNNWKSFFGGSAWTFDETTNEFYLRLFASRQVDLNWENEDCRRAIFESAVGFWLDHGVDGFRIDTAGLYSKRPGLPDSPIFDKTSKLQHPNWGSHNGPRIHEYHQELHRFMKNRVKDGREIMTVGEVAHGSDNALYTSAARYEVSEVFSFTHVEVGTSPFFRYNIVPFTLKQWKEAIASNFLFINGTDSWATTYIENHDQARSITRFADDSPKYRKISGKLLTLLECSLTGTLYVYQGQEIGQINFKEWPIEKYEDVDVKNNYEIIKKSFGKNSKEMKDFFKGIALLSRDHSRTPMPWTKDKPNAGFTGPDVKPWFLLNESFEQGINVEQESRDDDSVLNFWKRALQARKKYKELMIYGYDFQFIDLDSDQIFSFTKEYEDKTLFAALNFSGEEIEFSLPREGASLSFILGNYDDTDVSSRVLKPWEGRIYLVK

For orientation: IC50 means the concentration that inhibits the measured activity by half. Take `COc1cc2c(cc1O)[C@@H](Cc1ccc(O)c(Oc3ccc(C[C@@H]4c5cc(OC)c(OC)cc5CCN4C)cc3)c1)N(C)CC2` [Compound 5, daurisoline]: the half-maximal inhibitory concentration (IC50) in assay [1] (IC50 α-Glucosidase) was 45.2 ± 1.27 µM; in assay [2] (read-out: IC50 α-Amylase), 66.4 ± 2.31 µM.
With `COC1=C[C@@H]2[C@@H]3Cc4ccc(OC)c(O)c4[C@]2(CCN3C)CC1=O` [Compound 9, sinomenine], the half-maximal inhibitory concentration (IC50) in assay [1] (IC50 α-Glucosidase) came out at 57.6 ± 0.88 µM; in assay [2] (IC50 α-Amylase) it was 66.7 ± 1.45 µM.
With `COc1ccc(C2=CC(=O)OC2Cc2ccc(OC3OC(CO)C(O)C(O)C3O)cc2)c(OC2OC(CO)C(O)C(O)C2O)c1` (stereo not drawn) [Compound 1, 4R-pueroside B], the 50% inhibitory concentration (IC50) is 61.3 ± 1.15 µM in assay [1] (read-out: IC50 α-Glucosidase) and 81.7 ± 1.72 µM in assay [2] (read-out: IC50 α-Amylase). Also, the “α-glucosidase inhibitory activity (in words)” value in assay [1] was “significant inhibitory activity”. Besides, the “α-amylase inhibitory activity (in words)” value in assay [2] is “significant inhibitory activity”.
For the molecule `COc1ccc(C2=CC(=O)OC2Cc2ccc(O)cc2)c(OC2OC(CO)C(O)C(O)C2O)c1` (single isomer, unassigned; (-)) [Compound 3, (−)-puerol B-2-O-glucopyranoside], the half-inhibitory concentration (IC50) was 72.9 ± 0.79 µM in assay [1] (read-out: IC50 α-Glucosidase) and 83.6 ± 1.15 µM in assay [2] (read-out: IC50 α-Amylase). The “α-glucosidase inhibitory activity (in words)” value in assay [1] was “significant inhibitory activity”. Further, the “α-amylase inhibitory activity (in words)” value in assay [2] is on record as “significant inhibitory activity”.
`COc1ccc(C2=CC(=O)OC2Cc2ccc(OC3OC(CO)C(O)C(O)C3O)cc2)c(OC2OC(CO)C(O)C(O)C2O)c1` (stereo not drawn) [Compound 2, 4S-pueroside B]: the IC50 in assay [1] (read-out: IC50 α-Glucosidase) and in assay [2] (read-out: IC50 α-Amylase) was above 100 µM each time. Besides, the “α-glucosidase inhibitory activity (in words)” value in assay [1] is “did not show any activity”. In addition, in assay [2], the “α-amylase inhibitory activity (in words)” value was “did not show any activity”.
`COC1=CC(=O)[C@@]2([C@@H]1O)[C@@H](Cl)C[C@@]13C(OC)=C(OC)C(=O)C[C@@]21CCN3C` [Compound 8, acutumine]: the values for the IC50 in assay [1] (read-out: IC50 α-Glucosidase) and in assay [2] (read-out: IC50 α-Amylase) were 66.5 ± 2.03 µM and 80.7 ± 1.85 µM, respectively.
Turning to `COc1cc(O)ccc1C(O)C(=O)Cc1ccc(O)cc1` (stereo not drawn) [Compound 10], the half-inhibitory concentration (IC50) came out at 43.6 ± 0.76 µM in assay [1] (read-out: IC50 α-Glucosidase) and 63.6 ± 1.37 µM in assay [2] (read-out: IC50 α-Amylase).
In the case of `COc1cc2c(cc1O)[C@@H]1Cc3ccc(O)c(OC)c3CN1CC2` [Compound 7, stepholidine], the IC50 turned out to be 58.8 ± 1.55 µM in assay [1] (read-out: IC50 α-Glucosidase) and 78.2 ± 1.98 µM in assay [2] (read-out: IC50 α-Amylase).
Consider `COc1cc2c(cc1OC)[C@@H](Cc1ccc(Oc3cc(C[C@@H]4c5cc(OC)c(OC)cc5CCN4C)ccc3O)cc1)N(C)CC2` [Compound 4, dauricine], for which the figures for the IC50 in assay [1] (IC50 α-Glucosidase) and in assay [2] (read-out: IC50 α-Amylase) were 44.2 ± 1.03 µM and 60.9 ± 1.68 µM, respectively.
Take `CC1(C)CC(=O)C2(C)CCC3(C)C(=CCC4C5(C)CCC(=O)C(C)(CO)C5CCC43C)C2C1` (stereo not drawn) [Compound 12, melilotigenin B]: the concentration for half-maximal inhibition (IC50) was determined as 23.3 ± 0.38 µM in assay [1] (read-out: IC50 α-Glucosidase) and 30.9 ± 0.57 µM in assay [2] (read-out: IC50 α-Amylase).
Take `COc1ccc2c(c[n+](C)c3c4cc5c(cc4ccc23)OCO5)c1OC` [Compound 6, chelerythrine]: the values for the half-maximal inhibitory concentration (IC50) in assay [1] (read-out: IC50 α-Glucosidase) and in assay [2] (read-out: IC50 α-Amylase) were 52.3 ± 1.59 µM and 71.4 ± 1.24 µM, respectively.
Take `CC1(C)C=Cc2cc3c(cc2O1)OC1C2(O)C=CC(=O)C=C2OCC31O` (stereo not drawn) [Compound 11, hydroxytuberosone]: the figures for the IC50 in assay [1] (read-out: IC50 α-Glucosidase) and in assay [2] (read-out: IC50 α-Amylase) were 32.2 ± 0.71 µM and 38.9 ± 1.08 µM, respectively.
